Measured values: patent US20050256210A1, “Compounds with activity at estrogen receptors” (priority 2004, published 2005)
Read-outs that look alike come from different tables or passages of the source.

Legend:
[1] = target: T1, Estrogen receptor alpha (ERα) (Homo sapiens, UniProt P03372); assay: Receptor Selection and Amplification Technology (R-SAT) functional receptor assay, ERα; assay type: cell-based; settings: for Emax / % Efficacy ERα: NIH3T3 cells, efficacy relative to the reference ligand Estrone; for EC50 / pEC50 ERα: transfected NIH3T3 cells, agonist activity
T1 construct: expressed in transfected cells; host or cells: NIH3T3
T1 sequence (P03372 1-595): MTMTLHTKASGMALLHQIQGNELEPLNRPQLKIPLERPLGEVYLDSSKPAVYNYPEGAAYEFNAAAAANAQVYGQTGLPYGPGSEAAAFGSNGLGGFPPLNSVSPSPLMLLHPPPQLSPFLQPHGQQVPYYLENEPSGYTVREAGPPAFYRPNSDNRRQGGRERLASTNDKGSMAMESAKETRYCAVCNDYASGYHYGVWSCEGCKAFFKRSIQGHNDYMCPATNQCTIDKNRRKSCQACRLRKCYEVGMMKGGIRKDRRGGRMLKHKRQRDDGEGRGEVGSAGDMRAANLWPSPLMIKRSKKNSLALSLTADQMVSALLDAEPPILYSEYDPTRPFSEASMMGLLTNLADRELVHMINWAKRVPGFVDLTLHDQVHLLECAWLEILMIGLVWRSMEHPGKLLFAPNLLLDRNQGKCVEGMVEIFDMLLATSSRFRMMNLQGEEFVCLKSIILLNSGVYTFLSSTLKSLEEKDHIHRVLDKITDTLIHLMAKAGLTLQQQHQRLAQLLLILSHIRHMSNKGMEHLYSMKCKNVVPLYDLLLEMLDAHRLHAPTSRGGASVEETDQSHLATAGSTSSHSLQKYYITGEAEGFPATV
Procedure: (§1) The functional receptor assay, Receptor Selection and Amplification Technology (R-SAT™), was used with minor modifications from the procedure described in U.S. Pat. No. 5,707,798, which is hereby incorporated by reference in its entirety, to screen compounds for efficacy at the Estrogen receptors alpha and beta (ERα, ERβ). NIH3T3 cells were grown in roller bottles to 70-80% confluence. Cells were then transfected for 12-16 h with plasmid DNAs using Polyfect (Qiagen Inc.) as per the manufacturer's protocol. R-SAT assays were typically performed by transfecting 30 ug/bottle of receptor and 50 ug/bottle of β-galactosidase plasmid DNA. All receptor and helper constructs used were in mammalian expression vectors. Helpers are defined as signaling molecules that modulate both ligand-dependent and/or ligand-independent function of the ER receptors, typically co-activators and kinases. NIH3T3 cells were transfected for 12-16 h, then trypsinized and frozen in DMSO. Frozen cells were later thawed, plated at 10,000-40,000 cells per well of a 96 well plate containing 4-(1-Phenyl-cyclohexyl)-phenol. Cells were then grown in a humidified atmosphere with 5% ambient CO2 for five days. Media was then removed from the plates and marker gene activity was measured by the addition of the β-galactosidase substrate o-nitrophenyl β-D-galactopyranoside (ONPG, in PBS with 5% NP-40). The resulting colorimetric reaction was measured in a spectrophotometric plate reader (Titertek Inc.) at 420 nM. All data were analyzed using the computer program XLFit (IDBSm).
These experiments provided a molecular profile, or fingerprint, for each agent tested at the human Estrogen receptors.

[2] = target: T2, Estrogen receptor beta (ERβ) (Homo sapiens, UniProt Q92731); assay: Receptor Selection and Amplification Technology (R-SAT) functional receptor assay, ERβ; assay type: cell-based
T2 construct: expressed in transfected cells; host or cells: NIH3T3
Procedure: as §1, with “NIH3T3” for “The functional receptor assay, Receptor Selection and Amplification Technology (R-SAT™), was used with minor modifications from the procedure described in U.S. Pat. No. 5,707,798, which is hereby incorporated by reference in its entirety, to screen compounds for efficacy at the Estrogen receptors alpha and beta (ERα, ERβ). NIH3T3”, “The resulting colorimetric reaction was measured in a spectrophotometric plate reader (Titertek Inc.) at 420 nM.” left out

[3] = system: male Sprague-Dawley rats; assay: CFA induced arthritis rat model assay (hot plate latency, paw thickness); assay type: in vivo; settings: 1.0, 3.0 or 10 mg/kg s.c. daily from Day 4 after CFA
Procedure: Naïve, male Sprague-Dawley rats (225-250 g; n=6 per group) served as subjects. Response latencies to a noxious thermal stimulus were measured using the 52° C. hot plate test. After obtaining baseline responses, 0.1 ml of Freund's complete adjuvant (CFA) or vehicle (inactivated CFA (iCFA)) was injected into the dorsal surface of the left hind paw. Response latencies were again measured 4 days following CFA (or iCFA) administration, a time point when thermal hyperalgesia is stable. A significant decrease in the hot plate latency was interpreted as the presence of thermal hyperalgesia. Following testing, thickness of both hind paws were measured (using a micrometer) in order to quantify possible edema formation at the injection site. Various doses of 4-(1-Phenyl-cyclohexyl)-phenol (ERB-002) (1.0, 3.0 or 10 mg/kg) or vehicle (DMSO) were administered (s.c.) following testing on Day 4, and then daily following testing for a period of 3 days.

[4] = system: immature female Sprague-Dawley rats; assay: Uterotrophic in vivo assay (uterine weight); set-up: species or system rat; settings: 10, 30 or 100 mg/kg s.c. daily for 3 days; FIG. 4
Procedure: The effect of ERB-002 on uterine weight was assessed based on the previously published method of Harris et al., Endocrin, 2003, 143:4172, which is hereby incorporated by reference in its entirety. Naïve, female Sprague-Dawley rats (30-40 g; n=6 per group) served as subjects. Rats received daily subcutaneous injections of vehicle (100% DMSO), PPT (1.0 mg/rat)), a reportedly selective ERα agonist (Stauffer, 2000, J Med Chem 43:4934) or various doses of ERB-002 (10, 30 or 100 mg/kg) for a total of 3 days. Approximately 24 hours after the final injection, the rats were sacrificed, the uteri removed, trimmed of adhesions, fluid expelled and then weighed. Uterine weight was normalized as a percentage of total body weight by the following formula: % TBW=[(uterus weight (in mg)[…])/(body weight (in g))]*100.

[5] = R-SAT, NIH3T3 cells, efficacy relative to the reference ligand Estrone, read-out: % Efficacy ERβ
[6] = R-SAT, transfected NIH3T3 cells, agonist activity, read-out: pEC50 ERβ (converted)
[7] = R-SAT, NIH3T3 cells, efficacy relative to the reference ligand Estrone
[8] = R-SAT, transfected NIH3T3 cells, agonist activity

T2 sequence (Q92731 whole entry): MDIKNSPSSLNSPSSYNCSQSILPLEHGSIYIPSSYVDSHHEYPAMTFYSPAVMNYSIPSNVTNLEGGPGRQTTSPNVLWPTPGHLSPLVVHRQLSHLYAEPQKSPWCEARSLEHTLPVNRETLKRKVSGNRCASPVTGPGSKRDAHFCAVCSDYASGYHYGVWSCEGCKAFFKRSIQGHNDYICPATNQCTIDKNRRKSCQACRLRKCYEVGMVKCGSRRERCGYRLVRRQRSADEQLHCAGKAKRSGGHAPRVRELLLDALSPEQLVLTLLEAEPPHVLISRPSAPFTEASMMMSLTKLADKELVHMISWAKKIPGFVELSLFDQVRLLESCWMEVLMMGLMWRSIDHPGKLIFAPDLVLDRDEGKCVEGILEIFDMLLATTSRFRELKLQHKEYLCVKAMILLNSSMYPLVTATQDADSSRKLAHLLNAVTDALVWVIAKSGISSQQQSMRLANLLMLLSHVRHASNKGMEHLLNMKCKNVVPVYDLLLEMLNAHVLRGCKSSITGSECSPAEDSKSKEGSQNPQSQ

Row | SMILES | Emax [1] [%] | EC50 [1] [µM] | Emax [2, 5] [%] | EC50 [2, 6] [µM] | other results
1 | Oc1ccc(C2(c3ccccc3)CCCCC2)cc1 [ERB-002, 4-(1-Phenylcyclohexyl)phenol] | 50 | 3.16 | – | – | EC50 [2]: 0.0631 µM; Emax ([2]; NIH3T3, read-out: % Efficacy ERβ): 85%; selectivity of activation of ERβ relative to ERα ([2]; R-SAT, Table 1 and FIG. 1): selectively activates Estrogen beta receptor (ERβ) relative to the Estrogen alpha receptor (ERα); reversal of thermal hyperalgesia (52° C. hot plate latency) ([3]; FIG. 2): dose dependent reversal of thermal hyperalgesia; reversal of edema (paw thickness) ([3]; FIG. 3): dose dependent reversal of edema; uterotrophic properties (uterine weight as % of total body weight) [4]: does not display uterotrophic properties
2 | Oc1ccc(C2(c3ccc(F)c(F)c3)CCCCC2)cc1 [ERB-009] | – | – | – | – | % Efficacy ERα [1]: 100%; pEC50 ERα [1]: 5.4; % Efficacy ERβ [2, 7]: 138%; pEC50 ERβ [2, 8]: 7.2
3 | Oc1ccc(C2(c3ccccc3)CCCCCCC2)cc1 [ERB-017, 4-(1-Phenyl-cyclooctyl)-phenol] | 80 | 0.251 | 46 | 0.00631 | –
4 | Oc1ccc(C2(c3ccc(F)cc3)CCCCCC2)cc1O [ERB-014, 4-[1-(4-Fluoro-phenyl)-cycloheptyl]-benzene-1,2-diol] | 120 | 1.26 | 87 | 0.0794 | –
5 | Oc1ccc(C2(c3ccccc3)CCCCCC2)cc1 [ERB-012, 4-(1-Phenyl-cycloheptyl)-phenol] | 69 | 0.631 | 41 | 0.126 | –
6 | Oc1ccc(C2(c3ccc(F)cc3)CCC(C(F)(F)F)CC2)cc1 (stereo not shown) [ERB-031, 4-(1-(4-Flourophenyl)-[4-(trifluoromethyl)-cyclohexyl])-phenol] | – | – | – | – | % Efficacy ERα [1]: 124%; pEC50 ERα [1]: 5.6; % Efficacy ERβ [2, 7]: 62%; pEC50 ERβ [2, 8]: 6.1

The next lines start with results.

Row | Emax [1] [%] | EC50 [1] [µM] | Emax [2, 5] [%] | EC50 [2, 6] [µM] | SMILES | other results
7 | 95 | 2.51 | 46 | 0.0631 | Oc1ccc(C2(c3ccccc3)CCC(C(F)(F)F)CC2)cc1 (stereo not shown) [ERB-030, 4-(1-Phenyl-[4-(trifluoromethyl)-cyclohexyl])-phenol] | –
8 | 20 | > 10 | 37 | 0.0794 | Oc1ccc(C2(c3ccc(F)cc3F)CCCCC2)cc1 [ERB-011, 4-(1-(2,4-Difluoro-phenyl)-cyclohexyl)-phenol] | –
9 | 114 | 1.58 | 48 | 0.00794 | CC(C)C1CCC(c2ccc(O)cc2)(c2cccc(F)c2)CC1 (stereo not shown) [ERB-037, 4-[1-(3-Fluoro-phenyl)-4-isopropyl-cyclohexyl]-phenol] | –
